Measured values published in publication PMC13539321 (Journal of Advanced Research, 2025).

Tests used:
[1] = target: Mushroom TYR (EC 1.14.18.1) (Agaricus bisporus, UniProt C7FF04); assay: biochemical; conditions: IC50 value ± SD
[2] = tested on: B16F10 cells; assay: Cytotoxicity assay; format: cell-based; conditions: 72 h
[3] = tested on: B16F10 cells; assay: Intracellular melanogenesis inhibition assay, B16F10; format: cell-based; conditions: melanotan II 100 nM, 72 h; for order of inhibitory effectiveness (macroscopic colour): 100 μM; for inhibitory effect on melanin synthesis: various concentrations
[4] = tested on: A375 cells; assay: Cytotoxicity assay; format: cell-based; conditions: 72 h
[5] = target: mushroom TYR (Agaricus bisporus, UniProt C7FF04); assay: biochemical; format: binding
[6] = tested on: 3D melanin skin model; assay: 3D human skin model assay; format: cell-based; conditions: 100 µM, six doses, UVB 50 mJ/cm^2 for seven days, n = 6
[7] = in vitro; conditions: human, microsomes
[8] = human, microsomes
[9] = Plasma stability study; format: in vitro ADME; conditions: human
[10] = tested on: A375 cells; assay: Intracellular melanogenesis inhibition assay, A375; format: cell-based; conditions: melanotan II 100 nM, 72 h, all tested concentrations
[11] = L-dopa, substrate L-dopa (diphenolase), n = 3, screening of de novo generated compounds (Table 1)
[12] = L-tyrosine, substrate L-tyrosine (monophenolase), n = 3, screening of de novo generated compounds (Table 1)

Sequence of Mushroom TYR (EC 1.14.18.1) (C7FF04 1-392 limits assumed): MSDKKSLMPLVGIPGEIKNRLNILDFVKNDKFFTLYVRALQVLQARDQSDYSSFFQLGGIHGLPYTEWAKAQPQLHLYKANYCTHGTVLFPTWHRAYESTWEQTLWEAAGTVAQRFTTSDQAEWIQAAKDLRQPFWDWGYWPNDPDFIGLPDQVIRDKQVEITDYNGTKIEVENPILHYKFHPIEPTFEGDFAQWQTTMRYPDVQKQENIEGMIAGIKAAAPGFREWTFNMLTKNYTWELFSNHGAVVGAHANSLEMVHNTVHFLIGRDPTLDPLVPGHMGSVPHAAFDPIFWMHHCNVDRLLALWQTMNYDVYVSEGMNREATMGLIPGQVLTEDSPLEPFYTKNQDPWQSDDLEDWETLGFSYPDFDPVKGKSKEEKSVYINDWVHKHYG
Sequence of mushroom TYR (C7FF04 1-392 limits assumed): as above

IC50 [1, 11] [µM] | IC50 [1, 12] [µM] | Structure (SMILES) | order of inhibitory effectiveness (macroscopic colour) [3] | cytotoxicity ([4]; 200 μM) | other results
199 ± 22.7 | 35.9 ± 1.2 | O=C(/C=C/c1ccccc1)N1CCN(c2cccc(O)c2)CC1 [XII, (E)-1-(4-(3-hydroxyphenyl)piperazin-1-yl)-3-phenylprop-2-en-1-one] | – | – | –
> 800 | 99.7 ± 15.3 | Cc1nc2ccc(C(=O)NCc3ccc(O)cc3)cc2[nH]1 [XIII, N-(4-hydroxybenzyl)-2-methyl-1H-benzo[d]imidazole-6-carboxamide] | – | – | –
> 800 | 449 ± 36.1 | Cc1nc2cc(C(=O)N3CCCN(Cc4ccccc4)CC3)ccc2[nH]1 [XIV, (4-benzyl-1,4-diazepan-1-yl)(2-methyl-1H-benzo[d]imidazol-5-yl)methanone] | – | – | –

The next lines start with the compound.

Structure (SMILES) | IC50 [1, 11] [µM] | IC50 [1, 12] [µM] | order of inhibitory effectiveness (macroscopic colour) [3] | cytotoxicity ([4]; 200 μM) | other results
O=C(CCc1cccc(O)c1)N1CCN(Cc2ccc(F)cc2)CC1 [Compound V, 1-(4-(4-fluorobenzyl)piperazin-1-yl)-3-(3-hydroxyphenyl)propan-1-one] | 18.5 ± 2.4 | 9.6 ± 1.1 | compound V-24 > β-arbutin > kojic acid ≈ compound V | weak cytotoxicity | IC50 ([1]; L-dopa): 41.8 ± 3 µM; IC50 ([1]; L-tyrosine): 11.9 ± 0.5 µM; cytotoxicity ([2]; 200 μM): no cytotoxicity; inhibitory effect on melanin synthesis [3]: comparable to that of kojic acid; cytotoxicity ([4]; 100 μM): no cytotoxicity; Kd [5]: 24.2 ± 20.3 µM
Cc1ccc(CN2CCN(C(=O)/C=C/c3ccc(O)cc3O)CC2)cc1 [Compound V-24, (E)-3-(2,4-dihydroxyphenyl)-1-(4-(4-methylbenzyl)piperazin-1-yl)prop-2-en-1-one] | – | – | compound V-24 > β-arbutin > kojic acid ≈ compound V | weak cytotoxicity | IC50 ([1]; L-dopa): 0.018 ± 0.0007 µM; IC50 ([1]; L-tyrosine): 0.02 ± 0.001 µM; L value [6]: 83.38 ± 0.40; cytotoxicity ([2]; 100 μM): no cytotoxicity; half-life at 1 µM [7]: 0.58 h; remaining at 0.75 h, 1 µM [7]: 42%; Eh [8]: 69.00%; inhibitory effect on melanin synthesis [3]: akin to that of β-arbutin; half-life at 1 µM [9]: 8.74 h; remaining at 2 h, 1 µM [9]: 89.1%; inhibitory effect on melanin synthesis [10]: most pronounced inhibitory effect; cytotoxicity ([4]; 100 μM): no cytotoxicity; Kd [5]: 13.8 ± 4.2 µM
O=C(C=Cc1ccccc1)NCCc1cccc(O)c1 [XI, N-(3-hydroxyphenethyl)cinnamamide] | > 800 | 622 ± 82.8 | – | – | –
O=C(c1cccc(OCc2ccccc2)c1)N1CCN(c2ccc(O)cc2)CC1 [XV, (3-(benzyloxy)phenyl)(4-(4-hydroxyphenyl)piperazin-1-yl)methanone] | > 800 | > 800 | – | – | –
O=C(Oc1ccc(N2CCNCC2)cc1)c1cnc2ccccc2c1 [XVI, 4-(piperazin-1-yl)phenyl quinoline-3-carboxylate] | 138 ± 5.1 | 16 ± 1.6 | – | – | –
O=C(Oc1ccc(N2CCNCC2)cc1)c1cc(O)nc2ccccc12 [XVII, 4-(piperazin-1-yl)phenyl 2-hydroxyquinoline-4-carboxylate] | 303 ± 47.6 | 164 ± 19.8 | – | – | –
O=c1cc(CO)occ1O [kojic acid, reference compound] | – | – | compound V-24 > β-arbutin > kojic acid ≈ compound V | no cytotoxicity | L value [6]: 70.98 ± 0.68; cytotoxicity ([2]; 200 μM): no cytotoxicity
